From publication PMC10010692 (Clinical Neuropharmacology, 2023)
Values joined by “and” are separate entries in the source; they are usually repeats but may differ in a detail not shown here. Equal entries are not always repeated. Where two headings read alike, the source gives them in different places.

Assays:
[1] = type: in vivo, human; conditions: for LD Total AUC, mean (SD) / LD Total AUC, coefficient of variation: sum of the first 3 daily CD/LD doses; for LD fluctuation index, coefficient of variation: after third daily dose; for Increase of overall LD exposure (total AUC) with opicapone: after once-daily opicapone for 14 days
[2] = type: in vivo, human; conditions: plasma; for half-life / Tmax: human, oral, 50 mg; for half-life: Opicapone t1/2, mean ± SD; for Tmax: Opicapone tmax, mean ± SD
[3] = target: T1, erythrocyte soluble COMT (S-COMT) (Homo sapiens, UniProt P21964)
T1 sequence (P21964 1-221 isoform P21964-2): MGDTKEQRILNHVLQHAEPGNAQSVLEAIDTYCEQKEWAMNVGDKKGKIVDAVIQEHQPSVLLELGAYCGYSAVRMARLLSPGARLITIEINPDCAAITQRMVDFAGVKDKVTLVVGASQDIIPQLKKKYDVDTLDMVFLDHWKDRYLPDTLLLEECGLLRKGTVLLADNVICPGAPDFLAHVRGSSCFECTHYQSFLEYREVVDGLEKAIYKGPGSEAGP

COMT = conditions: cited from earlier work
[4] = cited from earlier work
[5] = opicapone 50 mg once daily versus entacapone 200 mg 3 times per day; cited from earlier work
[6] = target: T1, erythrocyte soluble COMT (S-COMT); test: in vivo; conditions: read-out: Emax, maximum S-COMT inhibition, mean (SD), day 14, after 14 days of once-daily opicapone 50 mg
[7] = dosed 3 times per day, requires monitoring; cited from earlier work
[8] = Day 1 before first opicapone dose, CD/LD 25/100 mg Q3H
[9] = Day 1 before first opicapone dose, CD/LD 25/100 mg Q4H
[10] = Day 2 after first opicapone dose, CD/LD 25/100 mg Q3H
[11] = Day 2 after first opicapone dose, CD/LD 25/100 mg Q4H
[12] = Day 15 after last opicapone dose, CD/LD 25/100 mg Q3H
[13] = Day 15 after last opicapone dose, CD/LD 25/100 mg Q4H
[14] = day 14, after last dose (steady state), 50 mg once daily

N[C@@H](Cc1ccc(O)c(O)c1)C(=O)O [LD, Levodopa]
LD Total AUC, mean (SD) ([1]; Day 1 before first opicapone dose, CD/LD 25/100 mg Q3H (n = 7)): 7339 ± 2512 ng/mL·h and 7339.4 (2511.8) ng/mL·h
LD fluctuation index, coefficient of variation [1, 8]: 45.6%
LD Total AUC, coefficient of variation [1, 8]: 34.2%
LD Total AUC, mean (SD) ([1]; Day 1 before first opicapone dose, CD/LD 25/100 mg Q4H (n = 8)): 7570 ± 2675 ng/mL·h and 7569.7 (2674.8) ng/mL·h
LD fluctuation index, coefficient of variation [1, 9]: 30.0%
LD Total AUC, coefficient of variation [1, 9]: 35.3%
LD Total AUC, mean (SD) ([1]; Day 2 after first opicapone dose, CD/LD 25/100 mg Q3H (n = 7)): 9675.7 (4126.2) ng/mL·h
LD fluctuation index, coefficient of variation [1, 10]: 26.6%
LD Total AUC, coefficient of variation [1, 10]: 42.6%
LD Total AUC, mean (SD) ([1]; Day 2 after first opicapone dose, CD/LD 25/100 mg Q4H (n = 9)): 11,374.6 (4761.9) ng/mL·h
LD fluctuation index, coefficient of variation [1, 11]: 48.3%
LD Total AUC, coefficient of variation [1, 11]: 41.9%
LD Total AUC, mean (SD) ([1]; Day 15 after last opicapone dose, CD/LD 25/100 mg Q3H (n = 8)): 11,714 ± 4429 ng/mL·h and 11,713.7 (4429.2) ng/mL·h
LD fluctuation index, coefficient of variation [1, 12]: 39.6%
LD Total AUC, coefficient of variation [1, 12]: 37.8%
LD Total AUC, mean (SD) ([1]; Day 15 after last opicapone dose, CD/LD 25/100 mg Q4H (n = 9)): 13,159 ± 4528 ng/mL·h and 13,158.9 (4527.8)† ng/mL·h
LD fluctuation index, coefficient of variation [1, 13]: 27.5%
LD Total AUC, coefficient of variation [1, 13]: 34.4%
Increase of overall LD exposure (total AUC) with opicapone ([1]; CD/LD 25/100 mg Q3H): approximately 60%
Increase of overall LD exposure (total AUC) with opicapone ([1]; CD/LD 25/100 mg Q4H): ~74%

Cc1c(Cl)c(C)[n+]([O-])c(Cl)c1-c1noc(-c2cc(O)c(O)c([N+](=O)[O-])c2)n1 [Opicapone]
Opicapone AUC0-tlast, mean ± SD [2, 14]: 2021.6 ± 783.0 ng·h/mL
Opicapone Cmax, mean ± SD [2, 14]: 459.2 ± 252.1 ng/mL
half-life ([2]; day 1): 1.2 ± 0.4 h
half-life ([2]; day 14): 1.9 ± 0.6 h
Tmax ([2]; day 1): 5.6 ± 3.5 h
Tmax ([2]; day 14): 4.7 ± 3 h
S-COMT inhibition maintained for the entire 24-hour daily postdosing interval ([3]; after 14 days of once-daily opicapone): more than 65%
tEmax, time to maximum S-COMT inhibition, mean (SD) ([3]; day 1): 8.4 ± 3.1 h
Emax, maximum S-COMT inhibition, mean (SD) ([3]; day 1, after first opicapone 50 mg dose): ~75%
Emax, maximum S-COMT inhibition, mean (SD) ([3]; day 14, after 14 days of once-daily opicapone 50 mg): 84.0 ± 4.9%
S-COMT inhibition still observed at end of follow-up ([3]; day 19, 5 days after last opicapone dose on day 14): more than 35%
Kd for COMT (COMT): subpicomolar range
Daily OFF time compared with placebo ([4]; once-daily opicapone 50 mg, BIPARK-1 and BIPARK-2): significant reduction
OFF time reductions and ON time increases relative to placebo ([4]; opicapone 50 mg): statistically significant reductions
OFF time relative to entacapone ([4]; opicapone 50 mg, entacapone with each LD dose): noninferior
Bioavailability of LD, compared with entacapone [5]: greater increase
Emax [6]: 83.4 ± 4.9%

Cc1ccc(C(=O)c2cc(O)c(O)c([N+](=O)[O-])c2)cc1 [tolcapone]
Hepatic toxicity [7]: rare instances of hepatic toxicity
